Data: article PMC5556071, “ATR inhibition facilitates targeting of leukemia dependence on convergent nucleotide biosynthetic pathways” (Nature Communications, 2017)
Values joined by “and” are separate entries in the source; they are usually repeats but may differ in a detail not shown here. Equal entries are not always repeated.

Tested on: CEM cells
Assay: Targeted LC-MS/MS-MRM of de novo and salvage dCTP biosynthesis (nucleotide pools and newly replicated DNA)
Type: cell-based, human
Method: Cells were transferred into RPMI-1640 without glucose and supplemented with 10% dialyzed FBS (Gibco) containing the following labeled substrates: precursors for de novo [U-^13C6]glucose (Sigma-Aldrich, 389374) at 11 mM; precursors for purine salvage [U-^13C10,^15N5]dA (Cambridge Isotopes, CIL 3896), [^15N5]dA (Cambridge Isotopes, NLM-3895) and [^15N5]dG (Cambridge Isotopes, NLM-3899) at 5 µM or as indicated; and precursors for pyrimidine salvage: [U-^13C9,^15N3]dC (Silantes, 124603602) and [U-^13C10,^15N2]dT (Cambridge Isotopes, CNLM-3902) at 5 µM and [^15N2]orotate (Cambridge Isotopes, NLM-1048) at indicated concentrations. The cells were incubated for 12 h or as indicated before sample collection and processing.
The rates of dCTP incorporation into the DNA were determined using linear regression with procedure GLM in SAS (v. 9.4). DNA % label was transformed using a shifted log addition of 1 due to the presence of zeros in the data set. Rates were calculated using the slope of the regression line for the log transformed data and are presented in the table with the associated standard errors, along with the ratio between the rate of incorporation into DNA by the de novo and salvage pathways (Table 1).
Cell cycle synchronization. Cells were treated with a CDK4/6 inhibitor, Pablociclib or PD-0332991 (Selleckchem, S1116) for 18 h to synchronize them in the G1 phase. Subsequently, cells were washed twice with PBS containing 2% FBS (Omega Scientific) and released into fresh media. […]
Clinical Microarray Core on an Illumina HiSeq3000 using the SeqCap EZ Exome Enrichment Kit v3.0 (Roche).
Reads were mapped to UCSC hg19 (bwa-mem), deduplicaed (PicardTools), and subjected to base quality score recalibration and realignment around known indels according to the Broad Institute Genome Analysis Toolkit (GATK) Best Practices v3.0. Variants in genes associated with nucleotide biosynthesis were identified using the GATK HaplotypeCaller, and annotated with Oncotator (http://portals.broadinstitute.org/oncotator/). dNTP sample processing. 0.5 – 1 x 10^6 cells were collected into 1.5 mL microcentrifuge tubes and centrifuged (450 x g, 4 min, 4 °C). The supernatant was carefully aspirated and the cells were washed twice with 1 mL of cold PBS, followed each time by centrifugation (450 x g, 4 min 4 °C). The PBS were aspirated.
Thereafter, the pellets were treated with 10 µL of 10% trifluoroacetic acid with internal standards (1 µM […]
s, and incubated on ice for 10 min. 40 µL of 500 mM ammonium acetate, pH = 9.3, with the same internal standard (1 µM [15N3]dCMP and [15N3]dCTP) was then added and the samples were vigorously vortexed again for 30 s. The samples were centrifuged (14,000 x g, 10 min, 4 °C) to remove cell debris. The supernatants (~ 40 µL) were transferred into HPLC injector vials. Stock solutions (10 mM) of rCTP, rCDP, dCMP, dCDP, and dCTP (Sigma Aldrich) were prepared individually in water, and stored at –20 °C before use to generate calibration standards. Calibration standards were prepared and mixed together in water with internal standards (1 µM [15N3]dCMP and [15N3]dCTP) to make working stock concentrations in 100 nM – 100 µM range.
Calibration standards were diluted 10-fold into the same nucleotide extraction solution of 10% TFA/500 mM ammonium acetate (1:4, v/v) with internal standards (1 µM [15N3]dCMP and [15N3]dCTP) to give a final concentration in 10 nM – 10 µM. Nucleotide and calibration samples were processed together to minimize […]
DNA sample processing. Genomic DNA from 0.5 – 1 x 10^4 cells was extracted using the Quick-gDNA MiniPrep kit (Zymo Research, D3021) and hydrolyzed to nucleosides using the DNA Degradase Plus kit (Zymo Research, E2021), following manufacturer-supplied instructions. In the final step of DNA extraction, 50 µL of […]
water was used to elute the DNA into 1.5 mL microcentrifuge tubes. A nuclease solution (5 µL; 10X buffer/DNA Degradase Plus™/water, 2.5/1/1.5, v/v/v) was added to 20 µL of the eluted genomic DNA in an HPLC injector […]
vial. […]

[1] = CEM 12 h, 1 uM VE-822, 1 uM DI-82, 500 nM 3-AP, #1-#3

NC(=S)N/N=C/c1ncccc1N [3-AP]
% sum abundance, de novo DNA-C, mass increase in nucleobase +0, in deoxyribose +3 [1]: 0.0554% and 0.0456% and 0.04% | % sum abundance, de novo DNA-C, mass increase in nucleobase +0, in deoxyribose +4 [1]: 0.02% and 0.0358% and 0.0465% | % sum abundance, de novo DNA-C, mass increase in nucleobase +0, in deoxyribose +5 [1]: 0.55% and 0.53% and 0.50% | % sum abundance, de novo DNA-C, mass increase in nucleobase +1, in deoxyribose +3 [1]: 0.00% | % sum abundance, de novo DNA-C, mass increase in nucleobase +1, in deoxyribose +4 [1]: 0.00% | % sum abundance, de novo DNA-C, mass increase in nucleobase +1, in deoxyribose +5 [1]: 0.07% and 0.0542% and 0.0459% | % sum abundance, de novo DNA-C, mass increase in nucleobase +2, in deoxyribose +4 [1]: 0.00% | % sum abundance, de novo DNA-C, mass increase in nucleobase +2, in deoxyribose +5 [1]: 0.0465% and 0.04% and 0.032% | % sum abundance, de novo DNA-C, mass increase in nucleobase +3, in deoxyribose +4 [1]: 0.00% | % sum abundance, de novo DNA-C, mass increase in nucleobase +3, in deoxyribose +5 [1]: 0.00% | % sum abundance, de novo DNA-C, mass increase in nucleobase +4, in deoxyribose +4 [1]: 0.00% | % sum abundance, de novo DNA-C, mass increase in nucleobase +4, in deoxyribose +5 [1]: 0.00% | % sum abundance, salvage DNA-C, mass increase in nucleobase +5, in deoxyribose +0 [1]: 0.00% | % sum abundance, salvage DNA-C, mass increase in nucleobase +5, in deoxyribose +4 [1]: 0.00% | % sum abundance, salvage DNA-C, mass increase in nucleobase +5, in deoxyribose +5 [1]: 0.00% | % sum abundance, salvage DNA-C, mass increase in nucleobase +6, in deoxyribose +0 [1]: 0.00% | % sum abundance, salvage DNA-C, mass increase in nucleobase +6, in deoxyribose +4 [1]: 0.00% | % sum abundance, salvage DNA-C, mass increase in nucleobase +6, in deoxyribose +5 [1]: 0.39% and 0.40% | % sum abundance, salvage DNA-C, mass increase in nucleobase +7, in deoxyribose +0 [1]: 0.00% | % sum abundance, salvage DNA-C, mass increase in nucleobase +7, in deoxyribose +4 [1]: 0.23% and 0.25% | % sum abundance, salvage DNA-C, mass increase in nucleobase +7, in deoxyribose +5 [1]: 4.69% and 4.96% and 4.68% | % sum abundance, unlabeled DNA-C, mass increase in nucleobase +0, in deoxyribose +0 [1]: 83.63% and 83.39% and 83.92% | % sum abundance, unlabeled DNA-C, mass increase in nucleobase +0, in deoxyribose +1 [1]: 4.68% and 4.72% and 4.61% | % sum abundance, unlabeled DNA-C, mass increase in nucleobase +0, in deoxyribose +2 [1]: 0.67% and 0.60% and 0.58% | % sum abundance, unlabeled DNA-C, mass increase in nucleobase +1, in deoxyribose +0 [1]: 4.40% and 4.42% and 4.39% | % sum abundance, unlabeled DNA-C, mass increase in nucleobase +1, in deoxyribose +1 [1]: 0.26% | % sum abundance, unlabeled DNA-C, mass increase in nucleobase +1, in deoxyribose +2 [1]: 0.00% | % sum abundance, unlabeled DNA-C, mass increase in nucleobase +2, in deoxyribose +0 [1]: 0.31% and 0.29% and 0.26% | % sum abundance, unlabeled DNA-C, mass increase in nucleobase +2, in deoxyribose +1 [1]: 0.00% | % sum abundance, unlabeled DNA-C, mass increase in nucleobase +2, in deoxyribose +2 [1]: 0.00% | % sum abundance, unlabeled DNA-C, mass increase in nucleobase +3, in deoxyribose +0 [1]: 0.00% | % sum abundance, unlabeled DNA-C, mass increase in nucleobase +3, in deoxyribose +1 [1]: 0.00% | % sum abundance, unlabeled DNA-C, mass increase in nucleobase +4, in deoxyribose +0 [1]: 0.00% | increase of incorporation of salvage-produced dCTP into DNA (CEM, 500 nM 3-AP, 12 h): > 1.5 fold | rCTP and rCDP pools (CEM, 500 nM 3-AP, 12 h): doubled | reduction in the incorporation of de novo produced dCTP into DNA (CEM, 500 nM 3-AP, 12 h): ~ 19 fold | salvage dC nucleotide pools (CEM, 500 nM 3-AP, 12 h): doubled | increase of salvage contributions to the dCMP, dCDP and dCTP pools (asynchronous CEM, 12 h): approximately twofold
